We go through ten molecules from patent US10590116B2, “3-indolyl furanoids as inhibitors of matrix metalloproteinase-9 for prevention of gastric ulcer and other inflammatory diseases” (Council of Scientific & Industrial Research, priority 2017, dated 2020).

MMP-9, sequence (P14780 94-707, species assumed): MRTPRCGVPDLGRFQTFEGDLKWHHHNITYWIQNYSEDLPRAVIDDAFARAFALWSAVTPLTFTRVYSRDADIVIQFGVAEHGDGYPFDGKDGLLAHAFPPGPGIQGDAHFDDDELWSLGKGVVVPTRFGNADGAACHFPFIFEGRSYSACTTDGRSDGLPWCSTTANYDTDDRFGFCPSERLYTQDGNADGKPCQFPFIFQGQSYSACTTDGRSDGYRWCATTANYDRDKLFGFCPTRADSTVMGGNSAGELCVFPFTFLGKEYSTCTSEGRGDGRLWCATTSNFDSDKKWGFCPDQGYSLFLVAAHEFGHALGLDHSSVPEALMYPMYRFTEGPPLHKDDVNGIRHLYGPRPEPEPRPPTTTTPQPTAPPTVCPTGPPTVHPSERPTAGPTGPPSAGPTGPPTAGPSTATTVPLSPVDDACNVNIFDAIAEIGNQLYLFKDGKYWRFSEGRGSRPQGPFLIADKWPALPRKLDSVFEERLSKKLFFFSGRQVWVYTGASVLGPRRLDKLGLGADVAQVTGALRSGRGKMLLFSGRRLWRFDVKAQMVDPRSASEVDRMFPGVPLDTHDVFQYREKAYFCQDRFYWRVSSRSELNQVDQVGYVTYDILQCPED

The subject of one test is indomethacin-induced acute gastric ulcers. Description: Protection studies of gastric ulceration in vivo (indomethacin-induced acute gastric ulcer, ulcer index). The arrangement: species or system Balb/c mice. To be noted: Mus musculus, po, 4 h; 12 mg/kg body weight, indomethacin 80 mg/kg, Balb/c mice. The method, then: Animal experiments were carried out using Balb/c mice (20-25 g). Animals were anesthetized with ketamine (12 mg/kg b.w.) prior to cervical dislocation. Control and experimental animals were fasted for 6 hr with free access to water.
Balb/c mice (20-25 g) bred in-house with free access to food and water was used for all experiments. Experiments were designed to minimize animal suffering and to use the minimum number associated with valid statistical evaluation. Animals were anesthetized with ketamine (12 mg/kg b.w.) followed by cervical dislocation. Animal experiments were carried out following the guidelines of animal ethics committee of the institute. Control and experimental animals were fasted for 6 h with free access to water.
Before ulcer induction, animals of both control and experimental groups were kept separately in standard controlled conditions. Acute gastric ulcers were induced by oral administration of indomethacin at a dose of 80 mg/kg b.w. The control group received the vehicle only (olive oil), whereas the experimental group received indomethacin for gastric ulceration. After 4 h, the animals were sacrificed and gastric lesions in the fundic stomach were scored and expressed as obtained by counting the number of red bands/dots as follows: 0=no pathology; 1=a small pinhead ulcer spot; and 2-5=a band like lesion of 2-5 mm length. Total score become ˜50 when ulcer is severe. The sum of the total scores as divided by the number of animals was expressed as the mean ulcer index. Formulations were administered orally 30 min prior to indomethacin treatment to check the gastroprotective effect. Among all the chemical compositions of 3-indolyl furanoids synthesized (table 1), compounds 1, 2, 5, 8, 9 and 12 were tested for prevention studies against gastric inflammation in vivo.
By inhibition in vivo is commonly meant the drop in the measured response relative to a control, in per cent. Read a high inhibition in vivo as a strong effect. `COc1ccc2[nH]c([S+]([O-])Cc3ncc(C)c(OC)c3C)nc2c1` (centres unmarked) [Omeprazole, reference compound] had an inhibition in vivo at 12 mg/kg of 100%.

The same test, now with this note: Mus musculus; 50 mg/kg body weight oral in olive oil, indomethacin 80 mg/kg, scored after 4 h, Balb/c mice.
As for `Oc1ccc2[nH]cc(-c3cc(-c4ccccc4)oc3-c3ccccc3)c2c1` [compound 1, 3-(2,5-diphenylfuran-3-yl)-1H-indol-5-ol], the inhibition in vivo at 50 mg/kg was 78%.
On the same count and under the same terms, the same measure for `COc1ccc2[nH]cc(-c3cc(-c4ccccc4)oc3-c3ccccc3)c2c1` [compound 2, 3-(2,5-diphenylfuran-3-yl)-5-methoxy-1H-indole]: 83%; for `COc1ccc2[nH]cc(-c3cc(-c4ccccc4)oc3-c3ccccc3)c2c1OC` [compound 6, 4,5-dimethoxy-3-(2,5-diphenylfuran-3-yl)-1H-indole]: 74%; for `c1ccc(-c2cc(-c3c(-c4ccccc4)[nH]c4ccccc34)c(-c3ccccc3)o2)cc1` [compound 8, 2-phenyl-3-(2,5-diphenylfuran-3-yl)-1H-indole]: 65%.
On to `Oc1ccccc1-c1[nH]c2ccccc2c1-c1cc(-c2ccccc2)oc1-c1ccccc1` [compound 9, 3-(2,5-diphenylfuran-3-yl)-2-(2-hydroxyphenyl)-1H-indole], for which the inhibition in vivo at 50 mg/kg turned out to be 72%.
On the same count and under the same terms, to `COc1cccc2c1c(-c1cc(-c3ccccc3)oc1-c1ccccc1)cn2C` [compound 12, 4-methoxy-1-methyl-3-(2,5-diphenylfuran-3-yl)-1H-indole] belongs 56%.

A further test has as its target MMP-9 (Homo sapiens, UniProt P14780). In words: In vitro analysis of anti-ulcer efficacy (structure-activity discussion). To be noted: method not described.
Take `C=CCOc1ccc2[nH]cc(-c3cc(-c4ccccc4)oc3-c3ccccc3)c2c1` [compound 3, 5-(allyloxy)-3-(2,5-diphenylfuran-3-yl)-1H-indole]: the “anti-ulcer efficacy in vitro” value is recorded as “moderate anti-ulcer efficacy”.
As to `CCCOc1ccc2[nH]cc(-c3cc(-c4ccccc4)oc3-c3ccccc3)c2c1` [compound 4, 3-(2,5-diphenylfuran-3-yl)-5-propoxy-1H-indole], the “anti-ulcer efficacy in vitro” value is “moderate anti-ulcer efficacy”.
For `Cc1c(-c2cc(-c3ccccc3)oc2-c2ccccc2)c2ccccc2n1C` [compound 11, 1,2-dimethyl-3-(2,5-diphenylfuran-3-yl)-1H-indole], the “anti-ulcer efficacy in vitro” value was “not acceptable to have good anti-ulcer activity”.
Take `COc1cccc2c1c(-c1cc(-c3ccccc3)oc1-c1ccccc1)cn2C` [compound 12, 4-methoxy-1-methyl-3-(2,5-diphenylfuran-3-yl)-1H-indole]: the “anti-ulcer efficacy in vitro” value is “not acceptable to have good anti-ulcer activity”.
